{"source": "patent US4624695A", "about": "“O-diaminophosphinyl derivatives of oximes as urease inhibitors” (Allied Corporation, priority 1983, dated 1986)", "system": "soil urease", "assay": "Efficacy test: urease inhibition in soil (urea remaining after incubation)", "assay_type": "biochemical", "conditions": "800 micrograms test compound and 42.8 mg urea per 20 g air-dry soil, incubated at 25° C. for three days, run in triplicate", "protocol": "Efficacy tests were conducted to evaluate the efficacy of certain representative oximated O-diaminophosphinyl compounds as urease inhibitors. The inhibition tests were run in a New York soil (Cazenovia silt loam, pH 7.2) or in Wisconsin soil (Plano silt loam, pH 5.4). Evaluations (run in triplicate) consisted of applying 800 micrograms of the test compound in 5 mL of water and 42.8 mg of urea in 1 mL of water to 20 g of air-dry soil in a glass bottle. The bottle was capped with perforated aluminum foil and incubated at 25° C. for three days prior to extraction with 100 mL of a 2M potassium chloride solution containing 0.5 mg of phenylmercuric acetate. The extracts were then analyzed for remaining urea using an autoanalyzer. Percent inhibition was calculated as [formula] where A is urea recovered from unincubated sample (urea added to soil and immediately extracted); B is urea recovered from inhibited sample; and C is urea recovered from the control (uninhibited sample)."}
{"smiles": "CC(C)=NOP(N)(N)=O", "note": "[O--(Diaminophosphinyl)-2-propanone Oxime, O-(Diaminophosphinyl)-2-propanone Oxime]", "values": [{"measurement": "% Inhibition, Cazenovia (pH 7.2)", "setting": "New York soil (Cazenovia silt loam, pH 7.2)", "result": 84, "unit": "%"}, {"measurement": "% Inhibition, Wisconsin (pH 5.4)", "setting": "Wisconsin soil (Plano silt loam, pH 5.4)", "result": 53, "unit": "%"}]}
